# Laboratory results: US6844183B2, “Antibiotics RK-1061 and process for preparing the same” (Daiichi Pharmaceutical Co., Ltd., priority 1996, dated 2005)
# Experiments:
# [1] = system: Mycobacterium phlei IFO 3158; assay: paper disk antibacterial test, Mycobacterium phlei; type: cell-based; conditions: for The diameter of cell growth inhibition zone against M. Phlei: 2 μg/disc; for the diameter of cell growth inhibition zone: Mycobacterium phlei IFO 3158, 20 μg/disc
# Description: (§1) Methanol solution of each tested substance with specific concentration was sunk on a paper disk with diameter of 8 mm (Thick, Toyo-roshi) and dried, which was placed on a plate of each bacterium. After culture under the conditions suitable for each bacterium, the diameter of cell growth was measured, The results are shown in Table 4, 5 and 6.
# [2] = system: Candida albicans IFO 5994; assay: paper disk test, Candida albicans IFO 5994; type: cell-based; conditions: 20 μg/disc
# Description: as §1
# peptidoglycan synthesis = assay: inhibitory activity on peptidoglycan synthesis (crude enzyme, UDP-[3H]GlcNAc incorporation); type: biochemical, Escherichia coli; conditions: 0.1 μg/ml
# Description: Crude enzyme and substrate UDP-MurNAc-pentapeptide were prepared from Escherichia coli and Bacillus subtilis respectively according to a reference (J. Biol. Chem., 243, 3180 (1968)). Enzymatic reaction was carried out by mixing 5 μl of 1M Tris-HCl (pH 7.5), 10 μl of 0.1M MgCl2, 5 μl of 2 mM UDP-MurNAc-pentapeptide, 5 μl of enzyme solution(15 mg/ml protein concentration), 5 μl of sample, 5 μl of UDP-[U-^3H]GlcNAc (10 μCi/ml, 25.8 Ci/mmol., Du'pont) and 15 μl of water at 37° C. for 60 minutes and […]. After ice-cooling, it was trapped on a GF/C glass filter(2.4 cm, Whatman). And after adding scintillator thereto, radiation thereof was counted. Inhibitory % was calculated by comparing the count of control.
# Escherichia coli AB 1157 = assay: paper disk antibacterial test, Escherichia coli AB 1157; type: cell-based; conditions: 20 μg/disc
# Description: as §1
# [3] = system: Staphylococcus aureus IFO 12732; assay: paper disk antibacterial test, Staphylococcus aureus IFO 12732; type: cell-based; conditions: 20 μg/disc
# Description: as §1
# [4] = system: Bacillus subtilis IFO 3513; assay: paper disk antibacterial test, Bacillus subtilis IFO 3513; type: cell-based; conditions: 20 μg/disc; for the diameter of cell growth inhibition zone: ( ) represents partial inhibition
# Description: as §1
# BALB/3T3 cells = assay: cytotoxicity test (MTT); type: cell-based; conditions: 3 days culture
# Description: BALB/3T3 cells (100 μl) were inoculated into 10% FBS added DMEM medium (Gibco) in 96 well plate so as to be 1×10^5 cells/ml under 5% CO2 at 37° C., which was cultured overnight. The test substance dissolved in methanol was added thereto, which was cultured for more 3 days and further kept cultured for 4 hours after adding 10 μl of 2.5 mg/ml MTT reagent (Sigma). After removing supernatant, 100 μl of DMSO was added thereto and kept it overnight. The absorbance thereof at 540 nm was determined to detect viable cells.
# Escherichia coli BE 1186 = assay: paper disk antibacterial test, Escherichia coli BE 1186; type: cell-based; conditions: 20 μg/disc, ( ) represents partial inhibition
# Description: as §1
Compound,The diameter of cell growth inhibition zone against M. Phlei ([1]; Table 5) [mm],the diameter of cell growth inhibition zone [2] [mm],Inhibitory activity on peptidoglycan synthesis (peptidoglycan synthesis) [%],the diameter of cell growth inhibition zone (Escherichia coli AB 1157) [mm],the diameter of cell growth inhibition zone [3] [mm],the diameter of cell growth inhibition zone [4] [mm],Cytotoxicity against BALB/3T3 (IC50) (BALB/3T3 cells) [µg/mL],The diameter of cell growth inhibition zone against M. Phlei ([1]; Table 6),the diameter of cell growth inhibition zone [1] [mm],the diameter of cell growth inhibition zone (Escherichia coli BE 1186) [mm],"the diameter of cell growth inhibition zone, partial inhibition (value in brackets) [4]"
CC(C)CCCCCCCCCCC(CC(=O)OC1CN(C)C(C(OC2OC(CN)C(O)C2OS(=O)(=O)O)C2OC(n3ccc(=O)[nH]c3=O)C(O)C2O)C(=O)N(C)C1C(=O)O)OC(=O)CC(C)CC(=O)O (centres unmarked) [Liposidomycins L],14.08,,,,,,,,,,
"CCCCCC=CCC=CCCCC(CC(=O)OC1CN(C)C(C(OC2OC(CN)C(O)C2OS(=O)(=O)O)C2OC(n3ccc(=O)[nH]c3=O)C(O)C2O)C(=O)N(C)C1C(=O)O)OC(=O)CC(C)CC(=O)O (centres unmarked) [Liposidomycins A, reference compound]",0,0,95,0,0,0,>25,0 mm,18.9,,
CCCCCCCCC=CCC(CC(=O)OC1CN(C)C(C(OC2OC(CN)C(O)C2OS(=O)(=O)O)C2OC(n3ccc(=O)[nH]c3=O)C(O)C2O)C(=O)N(C)C1C(=O)O)OC(=O)CC(C)CC(=O)O (centres unmarked) [Liposidomycins Z],0,0,,0,0,0,,,,,
CCCCCC=CCC=CCCCC(CC(=O)OC1CN(C)C(C(OC2OC(CN)C(O)C2O)C2OC(n3ccc(=O)[nH]c3=O)C(O)C2O)C(=O)N(C)C1C(=O)O)OC(=O)CC(C)CC(=O)O (centres unmarked) [Liposidomycins A-(III)],11.62,0,96,0,0,21.0,>25,14.3^− mm,24.8,17.8,
CCCCCCCCC=CCCCC(CC(=O)OC1CN(C)C(C(OC2OC(CN)C(O)C2O)C2OC(n3ccc(=O)[nH]c3=O)C(O)C2O)C(=O)N(C)C1C(=O)O)OC(=O)CC(C)CC(=O)O (centres unmarked) [Liposidomycins G-(III)],16.68,,,,,,,,,,
CCCCCCCCCCCC(CC(=O)OC1CN(C)C(C(OC2OC(CN)C(O)C2O)C2OC(n3ccc(=O)[nH]c3=O)C(O)C2O)C(=O)N(C)C1C(=O)O)OC(=O)CC(C)CC(=O)O (centres unmarked) [Liposidomycins C-(III)],16.21,0,,0,0,17.8,,,30.3,14.3,(23.7) mm
Tunicamycin [TM],,,10,,,,0.05,,,,
CCCCCCCCC=CCC(CC(=O)OC1CN(C)C(C(OC2OC(CN)C(O)C2O)C2OC(n3ccc(=O)[nH]c3=O)C(O)C2O)C(=O)N(C)C1C(=O)O)OC(=O)CC(C)CC(=O)O (centres unmarked) [Liposidomycins Z-(III)],13.74,0,,0,0,22.2,,,26.3,18.8,
CCCCCCCCCCCCCC(CC(=O)OC1CN(C)C(C(OC2OC(CN)C(O)C2OS(=O)(=O)O)C2OC(n3ccc(=O)[nH]c3=O)C(O)C2O)C(=O)N(C)C1C(=O)O)OC(=O)CC(C)CC(=O)O (centres unmarked) [Liposidomycins M],16.86,0,,0,0,9.7,,,27.2,0,(13.0) mm
CCCCCCCCCCCCCC(CC(=O)OC1CN(C)C(C(OC2OC(CN)C(O)C2O)C2OC(n3ccc(=O)[nH]c3=O)C(O)C2O)C(=O)N(C)C1C(=O)O)OC(=O)CC(C)CC(=O)O (centres unmarked) [Liposidomycins M-(III)],15.49,0,,0,0,14.8,,,25.7,,
CCCCCC=CCC=CCCCCCC(CC(=O)OC1CN(C)C(C(OC2OC(CN)C(O)C2O)C2OC(n3ccc(=O)[nH]c3=O)C(O)C2O)C(=O)N(C)C1C(=O)O)OC(=O)CC(C)CC(=O)O (centres unmarked) [Liposidomycins K-(III)],12.27,0,,0,0,13.0,,,23.3,13.5,
CCCCCC=CCC=CCC(CC(=O)OC1CN(C)C(C(OC2OC(CN)C(O)C2O)C2OC(n3ccc(=O)[nH]c3=O)C(O)C2O)C(=O)N(C)C1C(=O)O)OC(=O)CC(C)CC(=O)O (centres unmarked) [Liposidomycins Y-(III)],0,,,,,,,,,,
CCCCCC=CCC=CCCCCCC(CC(=O)OC1CN(C)C(C(OC2OC(CN)C(O)C2OS(=O)(=O)O)C2OC(n3ccc(=O)[nH]c3=O)C(O)C2O)C(=O)N(C)C1C(=O)O)OC(=O)CC(C)CC(=O)O (centres unmarked) [Liposidomycins K],13.15,0,,0,0,,,,28.6,,
"CCCCCCCCCCCC(CC(=O)OC1CN(C)C(C(OC2OC(CN)C(O)C2OS(=O)(=O)O)C2OC(n3ccc(=O)[nH]c3=O)C(O)C2O)C(=O)N(C)C1C(=O)O)OC(=O)CC(C)CC(=O)O (centres unmarked) [Liposidomycins C, reference compound]",0,0,,0,0,0,,,22.1,0,
